Experimental data as given in PubChem BioAssay AID330 (DTP/NCI, 2004).
Where “and” joins values, the source holds several entries; their conditions need not be identical. Equal values may be shown once. Inconclusive results and toxic doses are left out.

Tested on: P388 leukemia ip, CD2F1 mice, survival T/C
Experiment: NCI In Vivo Anticancer Drug Screen. Data for tumor model P388 Leukemia (intraperitoneal) in CD2F1 (CDF1) mice
Settings: endpoint: median survival time, higher = longer survival
How it was run: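 Mice carrying the transplanted tumor received test compound or vehicle. Survival was recorded in each group, and the value is the treated-group measurement divided by that of the vehicle-treated control group.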

[1] = dose: 6.25 mg/kg/injection, schedule: Q01DX005 (ip), vehicle: saline with Tween-80
[2] = dose: 50.0 mg/kg/injection, schedule: Q01DX009 (ip), vehicle: Klucel (hydroxypropylcellulose) (HPC)
[3] = dose: 100.0 mg/kg/injection, schedule: Q01DX009 (ip), vehicle: Klucel (hydroxypropylcellulose) (HPC)
[4] = dose: 200.0 mg/kg/injection, schedule: Q01DX009 (ip), vehicle: Klucel (hydroxypropylcellulose) (HPC)
[5] = dose: 6.25 mg/kg/injection, schedule: Q01DX009 (ip), vehicle: saline with Tween-80
[6] = dose: 12.5 mg/kg/injection, schedule: Q01DX009 (ip), vehicle: saline with Tween-80
[7] = dose: 100.0 mg/kg/injection, schedule: Q01DX009 (ip), vehicle: saline with Tween-80
[8] = dose: 200.0 mg/kg/injection, schedule: Q01DX009 (ip), vehicle: saline with Tween-80
[9] = dose: 100.0 mg/kg/injection, schedule: Q04DX003 (ip), vehicle: saline
[10] = dose: 200.0 mg/kg/injection, schedule: Q04DX003 (ip), vehicle: saline
[11] = dose: 400.0 mg/kg/injection, schedule: Q04DX003 (ip), vehicle: saline
[12] = dose: 50.0 mg/kg/injection, schedule: Q01DX005 (ip), vehicle: Klucel (hydroxypropylcellulose) (HPC)
[13] = dose: 200.0 mg/kg/injection, schedule: Q01DX005 (ip), vehicle: Klucel (hydroxypropylcellulose) (HPC)
[14] = dose: 100.0 mg/kg/injection, schedule: Q01DX005 (ip), vehicle: Klucel (hydroxypropylcellulose) (HPC)

`C/C(=N\NC(=S)N1CCN(C2CCCCC2)CC1)c1ccccn1` was tested, and the T/C (dose: 1.56 mg/kg/injection, schedule: Q01DX005 (ip), vehicle: saline with Tween-80) was 103 % of control, the T/C (dose: 3.13 mg/kg/injection, schedule: Q01DX005 (ip), vehicle: saline with Tween-80) was 106 % of control and the T/C [1] was 101 % of control and 87 % of control.
In the case of `O=C(CCNC(=O)OCc1ccccc1)NC(CSCc1ccccc1)C(=O)O` (stereo not given), the T/C (dose: 6.25 mg/kg/injection, schedule: Q01DX009 (ip), vehicle: water) is reported as 100 % of control, the T/C (dose: 12.5 mg/kg/injection, schedule: Q01DX009 (ip), vehicle: water) is reported as 100 % of control and the T/C (dose: 25.0 mg/kg/injection, schedule: Q01DX009 (ip), vehicle: water) is reported as 95 % of control. The T/C (dose: 50.0 mg/kg/injection, schedule: Q01DX009 (ip), vehicle: water) was 100 % of control and the T/C (dose: 100.0 mg/kg/injection, schedule: Q01DX009 (ip), vehicle: water) was 95 % of control.
For `C1COCCOCCOCCO1.[Br][Sn]([Br])([Br])[Br]`, the T/C (dose: 60.0 mg/kg/injection, schedule: Q01DX005 (ip), vehicle: Klucel (hydroxypropylcellulose) (HPC)) was 103 % of control and the T/C (dose: 120.0 mg/kg/injection, schedule: Q01DX005 (ip), vehicle: Klucel (hydroxypropylcellulose) (HPC)) was 107 % of control.
`CC(C)=CCCC1=C2[C@H](O)C=C(C)C[C@@H]2OC1=O` was tested, and the T/C (dose: 50.0 mg/kg/injection, schedule: Q01DX005 (ip), vehicle: saline with Tween-80) was 100 % of control, the T/C (dose: 100.0 mg/kg/injection, schedule: Q01DX005 (ip), vehicle: saline with Tween-80) was 99 % of control and the T/C (dose: 200.0 mg/kg/injection, schedule: Q01DX005 (ip), vehicle: saline with Tween-80) was 101 % of control.
In the case of `COC(=O)c1ccc(SCCC(=O)CN2C(=O)c3ccccc3C2=O)cc1`, the T/C [2] is reported as 94 % of control, the T/C [3] is reported as 93 % of control and the T/C [4] is reported as 86 % of control.
In the case of `CC1(C)C[C@H](O)[C@H]2O[C@@]2(C)C1`, the T/C (dose: 100.0 mg/kg/injection, schedule: Q04DX002 (ip), vehicle: saline) is reported as 95 % of control, the T/C (dose: 200.0 mg/kg/injection, schedule: Q04DX002 (ip), vehicle: saline) is reported as 96 % of control and the T/C (dose: 400.0 mg/kg/injection, schedule: Q04DX002 (ip), vehicle: saline) is reported as 105 % of control.
With `O=C1C(Cl)=C(NCCCC2CCCN3CCCCC23)C(=O)c2ccccc21` (stereo not given) the T/C (dose: 25.0 mg/kg/injection, schedule: Q04DX002 (ip), vehicle: Klucel (hydroxypropylcellulose) (HPC)) was 100 % of control, the T/C (dose: 50.0 mg/kg/injection, schedule: Q04DX002 (ip), vehicle: Klucel (hydroxypropylcellulose) (HPC)) was 101 % of control and the T/C (dose: 100.0 mg/kg/injection, schedule: Q04DX002 (ip), vehicle: Klucel (hydroxypropylcellulose) (HPC)) was 114 % of control and 94 % of control.
With `CN1C=C(c2ccccc2)C=C(c2ccccc2)C1S(=O)(=O)O` (stereo not given) the T/C (dose: 12.5 mg/kg/injection, schedule: Q01DX005 (ip), vehicle: saline + Tween-80 + alcohol) was 99 % of control and the T/C (dose: 25.0 mg/kg/injection, schedule: Q01DX005 (ip), vehicle: saline + Tween-80 + alcohol) was 96 % of control.
With `O=C(Nc1nn[nH]n1)c1nc(-c2ccccc2)cc(=O)[nH]1` the T/C (dose: 60.0 mg/kg/injection, schedule: Q01DX005 (ip), vehicle: saline with Tween-80) was 101 % of control, the T/C (dose: 120.0 mg/kg/injection, schedule: Q01DX005 (ip), vehicle: saline with Tween-80) was 101 % of control and the T/C (dose: 240.0 mg/kg/injection, schedule: Q01DX005 (ip), vehicle: saline with Tween-80) was 86 % of control.
`COc1ccc(Cc2nncc3ccccc23)cc1OC` was tested, and the T/C [5] was 107 % of control, the T/C [6] was 107 % of control and the T/C (dose: 25.0 mg/kg/injection, schedule: Q01DX009 (ip), vehicle: saline with Tween-80) was 105 % of control. For the same compound, the T/C [7] was 95 % of control and the T/C [8] was 104 % of control.
With `CC(C)(C)NC(=O)C(F)(F)C(F)(F)C(F)(F)C(=O)NC(C)(C)C` the T/C [9] was 91 % of control, the T/C [10] was 100 % of control and the T/C [11] was 99 % of control.
`COc1cc2c(cc1O)c(O)cc1c3cc(OC)c(OC)cc3c[n+](C)c21` was tested, and the T/C (dose: 25.0 mg/kg/injection, schedule: Q01DX005 (ip), vehicle: Klucel (hydroxypropylcellulose) (HPC)) was 152 % of control, the T/C [12] was 153 % of control and 160 % of control and the T/C [13] was 156 % of control and 159 % of control.
In the case of `CCOC(=O)c1cnc(=O)[nH]c1C(=O)OCC`, the T/C [12] is reported as 91 % of control, the T/C [14] is reported as 100 % of control and the T/C [13] is reported as 99 % of control.
In the case of `COC(=O)C1c2cc3c(c(O)c2C(OC2OC(C)C(OC)C(C)(OC)C2OC)CC1(C)O)C(=O)c1c(O)cc2c(c1C3=O)OC1OC2(C)C(OC(C)=O)C(N(C)C)C1OC(C)=O` (stereo not given), the T/C (dose: 3.12 mg/kg/injection, schedule: Q04DX003 (ip), vehicle: other) is reported as 87 % of control and the T/C (dose: 6.25 mg/kg/injection, schedule: Q04DX003 (ip), vehicle: other) is reported as 103 % of control.
In the case of `Nc1nc(=S)c2ncn(C3OC(CO)CC3O)c2[nH]1` (stereo not given), the T/C (dose: 26.4 mg/kg/injection, schedule: Q04DX003 (ip), vehicle: saline) is reported as 122 % of control and the T/C (dose: 150.0 mg/kg/injection, schedule: Q04DX003 (ip), vehicle: saline) is reported as 116 % of control.
For `N#CC1C(=O)NC(=S)NC1c1ccccc1` (stereo not given), the T/C [2] was 95 % of control, the T/C [3] was 101 % of control and the T/C [4] was 98 % of control.
With `COc1ccc(S(=O)(=O)N/N=C/c2ccccn2)cc1OC` the T/C [12] was 99 % of control, the T/C [14] was 96 % of control and the T/C [13] was 98 % of control.
In the case of `CC1CC[P+](c2ccccc2)(c2ccccc2)c2c1ccc1ccccc21` (stereo not given), the T/C (dose: 6.25 mg/kg/injection, schedule: Q04DX002 (ip), vehicle: saline) is reported as 118 % of control and the T/C (dose: 12.5 mg/kg/injection, schedule: Q04DX002 (ip), vehicle: saline) is reported as 108 % of control.
With `CC1CC(O)C(O)(c2ccccc2)CC1C` (stereo not given) the T/C (dose: 100.0 mg/kg/injection, schedule: Q01DX001 (ip), vehicle: Klucel (hydroxypropylcellulose) (HPC)) was 104 % of control, the T/C (dose: 200.0 mg/kg/injection, schedule: Q01DX001 (ip), vehicle: Klucel (hydroxypropylcellulose) (HPC)) was 101 % of control and the T/C (dose: 400.0 mg/kg/injection, schedule: Q01DX001 (ip), vehicle: Klucel (hydroxypropylcellulose) (HPC)) was 99 % of control.
In the case of `CCCCC(CC)CS(=O)(=O)OCCCCOS(=O)(=O)CC(CC)CCCC` (stereo not given), the T/C [12] is reported as 101 % of control, the T/C [14] is reported as 105 % of control and the T/C [13] is reported as 108 % of control.
For `O=C(NC1CCCCC1)OCC1OC(n2cnc3c(=O)[nH]cnc32)C(OC(=O)NC2CCCCC2)C1OC(=O)NC1CCCCC1` (stereo not given), the T/C [1] was 98 % of control, the T/C (dose: 12.5 mg/kg/injection, schedule: Q01DX005 (ip), vehicle: saline with Tween-80) was 90 % of control and the T/C (dose: 25.0 mg/kg/injection, schedule: Q01DX005 (ip), vehicle: saline with Tween-80) was 90 % of control.
For `COc1ccc(C2NC(c3ccc(OC)cc3)C3CCCC2C3=O)cc1` (stereo not given), the T/C [9] was 102 % of control, the T/C [10] was 93 % of control and the T/C [11] was 98 % of control.
In the case of `COC(=O)CCC(N=C(OC)c1ccccc1)C(=O)OC` (stereo not given), the T/C [12] is reported as 98 % of control, the T/C [14] is reported as 103 % of control and the T/C [13] is reported as 101 % of control.
In the case of `O=[N+]([O-])c1cnc(Sc2ccncn2)c([N+](=O)[O-])c1`, the T/C (dose: 3.12 mg/kg/injection, schedule: Q01DX009 (ip), vehicle: saline with Tween-80) is reported as 105 % of control, the T/C [5] is reported as 98 % of control and the T/C [6] is reported as 102 % of control. For the same compound, the T/C (dose: 12.5 mg/kg/injection, schedule: Q01DX009 (ip), vehicle: saline) was 100 % of control, the T/C (dose: 25.0 mg/kg/injection, schedule: Q01DX009 (ip), vehicle: saline) was 89 % of control and the T/C (dose: 50.0 mg/kg/injection, schedule: Q01DX009 (ip), vehicle: saline) was 99 % of control.
For `O=C(O)c1cccnc1Cl`, the T/C (dose: 50.0 mg/kg/injection, schedule: Q01DX009 (ip), vehicle: saline with Tween-80) was 103 % of control, the T/C [7] was 96 % of control and the T/C [8] was 100 % of control.
For `NC(=Nc1ccccc1)N(c1ccccc1)c1nc(=S)ss1`, the T/C (dose: 100.0 mg/kg/injection, schedule: Q04DX002 (ip), vehicle: saline with Tween-80) was 104 % of control, the T/C (dose: 200.0 mg/kg/injection, schedule: Q04DX002 (ip), vehicle: saline with Tween-80) was 93 % of control and the T/C (dose: 400.0 mg/kg/injection, schedule: Q04DX002 (ip), vehicle: saline with Tween-80) was 87 % of control.
In the case of `Nc1ncncc1-c1ccc2ccccc2c1`, the T/C [2] is reported as 95 % of control, the T/C [3] is reported as 92 % of control and the T/C [4] is reported as 96 % of control.
In the case of `O=C1Nc2ccc(Cl)cc2C(c2ccccc2Cl)=NC1O` (stereo not given), the T/C [3] is reported as 102 % of control and the T/C [4] is reported as 96 % of control.
